Reference: US20160031941A1, “TARGETING PEPTIDES THAT BIND S. MUTANS, CONSTRUCTS COMPRISING SUCH PEPTIDES AND USES THEREOF” (priority 2014, published 2016)
Read-outs that look alike come from different tables or passages of the source. Ends that are not written are not given here. Peptide text beside a SMILES is read from it.

Key:
S. mutans [1] = settings: Streptococcus mutans
B. subtilis = assay: MIC of antimicrobial peptides; type: cell-based
Procedure: (§1) Typically, the in vitro antimicrobial activity of antimicrobial agents is tested using standard NCCLS bacterial inhibition assays, or MIC tests (see, National Committee on Clinical Laboratory Standards “Performance Standards for Antimicrobial Susceptibility Testing,” NCCLS Document M100-S5 Vol. 14, No. 16, December 1994; “Methods for dilution antimicrobial susceptibility test for bacteria that grow aerobically-Third Edition,” Approved Standard M7-A3, National Committee for Clinical Standards, Villanova, Pa.).

MRSA = assay: MIC of antimicrobial peptides; type: cell-based, methicillin resistant Staphylococcus aureus
Procedure: as §1

T. rubrum = assay: MIC of antimicrobial peptides; type: cell-based
Procedure: as §1

E. coli = assay: MIC of antimicrobial peptides; type: cell-based
Procedure: as §1

S. mutans [2] = type: cell-based
Procedure: as §1

P. aeruginosa = type: cell-based
Procedure: as §1

A. niger = assay: MIC of antimicrobial peptides; type: cell-based
Procedure: as §1

C. difficile = type: cell-based
Procedure: as §1

S. pneumoniae = type: cell-based
Procedure: as §1

C. jeikeium = type: cell-based
Procedure: as §1

S. epidermidis = type: cell-based
Procedure: as §1

A. baumannii = type: cell-based
Procedure: as §1

For CC[C@H](C)[C@H](NC(=O)CNC(=O)[C@H](CCCCN)NC(=O)[C@H](CCCNC(=N)N)NC(=O)[C@@H](NC(=O)[C@@H](NC(=O)[C@H](CCCNC(=N)N)NC(=O)[C@H](CC(C)C)NC(=O)[C@H](CC(N)=O)NC(=O)[C@H](CCCCN)NC(=O)CNC(=O)CNC(=O)CNC(=O)[C@H](CCCCN)NC(=O)CNC(=O)[C@H](CC(C)C)NC(=O)[C@H](C)NC(=O)[C@H](CCC(N)=O)NC(=O)[C@@H](NC(=O)[C@H](CCC(N)=O)NC(=O)[C@H](CO)NC(=O)[C@H](CCCNC(=N)N)NC(=O)[C@H](CC(N)=O)NC(=O)[C@H](CCC(N)=O)NC(=O)[C@H](CC(C)C)NC(=O)[C@H](CCCNC(=N)N)NC(=O)[C@H](Cc1ccccc1)NC(=O)[C@H](CCC(N)=O)NC(=O)[C@@H](N)[C@@H](C)O)[C@@H](C)O)[C@@H](C)CC)[C@@H](C)CC)C(=O)N[C@@H](Cc1c[nH]cn1)C(=O)N[C@H](C(=O)N[C@H](C(=O)N[C@@H](CCCCN)C(=O)N[C@@H](CCCCN)C(=O)N[C@@H](Cc1ccc(O)cc1)C(N)=O)[C@@H](C)CC)[C@@H](C)CC [F7/11/15 sub Q_C16G2], the “% viability remaining” value (S. mutans [1]) was 93%.

In the case of CC[C@H](C)[C@H](NC(=O)CNC(=O)[C@@H](N)CCSC)C(=O)N[C@H](C(=O)N[C@@H](C)C(=O)NCC(=O)N[C@H](C(=O)N[C@H](C(=O)N[C@@H](CCCCN)C(=O)N[C@@H](Cc1ccccc1)C(=O)N[C@H](C(=O)N[C@@H](CCCCN)C(=O)NCC(=O)N[C@@H](CC(C)C)C(=O)N[C@H](C(=O)N[C@@H](CCC(=O)O)C(=O)N[C@@H](CCCCN)C(=O)N[C@@H](Cc1ccccc1)C(=O)N[C@H](C(=O)NCC(=O)N[C@@H](CCCCN)C(=O)O)[C@@H](C)O)[C@@H](C)CC)[C@@H](C)CC)[C@@H](C)CC)[C@@H](C)CC)[C@@H](C)CC [PF-006], the MIC (B. subtilis) is reported as “B. subtilis, 25 μM” and the MIC (MRSA) is reported as “MRSA, 50 μM”.

In the case of CSCC[C@H](N)C(=O)N[C@@H](CCCCN)C(=O)N[C@@H](CCCNC(=N)N)C(=O)N[C@@H](CCCNC(=N)N)C(=O)N[C@@H](CCCNC(=N)N)C(=O)N[C@@H](CS)C(=O)N[C@@H](CC(N)=O)C(=O)N[C@@H](Cc1c[nH]c2ccccc12)C(=O)N[C@@H](CS)C(=O)NCC(=O)N[C@@H](CCCCN)C(=O)N[C@@H](CC(C)C)C(=O)N[C@@H](Cc1ccccc1)C(=O)N[C@@H](Cc1ccc(O)cc1)C(=O)N[C@@H](CC(C)C)C(=O)N[C@@H](CCC(=O)O)C(=O)N[C@@H](CCC(=O)O)C(=O)N[C@@H](CCCCN)C(=O)N[C@@H](CO)C(=O)N[C@@H](CCCCN)C(=O)N[C@@H](CCC(=O)O)C(=O)N[C@@H](C)C(=O)N[C@@H](Cc1ccc(O)cc1)C(=O)N[C@@H](CS)C(=O)N[C@@H](CS)C(=O)N[C@@H](CCCCN)C(=O)N[C@@H](CCC(=O)O)C(=O)N[C@@H](CS)C(=O)N[C@@H](CCCNC(=N)N)C(=O)N[C@@H](CCCCN)C(=O)N[C@@H](CCCCN)C(=O)N[C@@H](C)C(=O)N[C@@H](CCCCN)C(=O)N[C@@H](CCCCN)C(=O)N[C@H](C(=O)N[C@@H](CCCCN)C(=O)N[C@@H](CCCCN)C(=O)O)C(C)C [PF-307] (H-MKRRRCNWCGKLFYLEEKSKEAYCCKECRKKAKKVKK-OH; N-terminus and C-terminus assumed), the MIC (B. subtilis) is reported as “B. subtilis, 50 μM” and the MIC (T. rubrum) is reported as “T. rubrum, 50 μM”.

With “FESKILNASKELDKEKKVNTALSFNSHQDFAKAYQNGKI [PF-606]” the MIC (E. coli) was “E. coli, 50 μM”, the MIC (S. mutans [2]; S. mutans) was “S. mutans, 50 μM” and the MIC (MRSA) was “MRSA, 50 μM”.

For FIRKFLQKLHL [K-16], the MIC (P. aeruginosa) was 12.5 µM, the MIC (S. mutans [2]; S. mutans) was “S. mutans, 8 μM” and the MIC (MRSA) was “MRSA, 25 μM”.

“GSVIKKRRKRMAKKKHRKLLKKTRIQRRRAGK [PF-527]” was tested, and the MIC (A. niger) was “A. niger, 50 μM”, the MIC (T. rubrum) was “T. rubrum, 25 μM” and the MIC (MRSA) was “MRSA, 50 μM”.

In the case of KFQGEFTNIGQSYIVSASHMSTSLNTGK [PF-583], the MIC (MRSA) is reported as “MRSA, 50 μM”.

With KFSDQIDKGQDALKDKLGDL [PF-525] the MIC (A. niger) was “A. niger, 50 μM”.

For KNKKQTDILEKVKEILDKKKKTKSVGQKLY [PF-538], the MIC (C. difficile; C. difficile) was “C. difficile, 25 μM”.

Compound “LGLTAGVAYAAQPTNQPTNQPTNQPTNQPTNQPTNQPRW-NH2 [PF-520]” has an MIC (S. pneumoniae; S. pneumoniae) of 50 µM.

For LSEMERRRLRKRA-NH2 [PF-529], the MIC (A. niger) was “A. niger, 50 μM” and the MIC (S. pneumoniae) was 50 µM.

LSLATFAKIFMTRSNWSLKRFNRL [PF-278] was tested, and the MIC (T. rubrum) was “T. rubrum, 50 μM”.

In the case of MIRIRSPTKKKLNRNSISDWKSNTSGRFFY [PF-283], the MIC (B. subtilis) is reported as “B. subtilis, 50 μM” and the MIC (T. rubrum) is reported as “T. rubrum, 50 μM”.

With MRFGSLALVAYDSAIKHSWPRPSSVRRLRM [PF-672] the MIC (A. niger) was “A. niger, 3 μM” and the MIC (MRSA) was “MRSA, 1.56 μM”.

NYAVVSHT [PF-209] was tested, and the MIC (MRSA) was “MRSA, 50 μM”.

For RESKLIAMADMIRRRI-NH2 [PF-545], the MIC (MRSA) was “MRSA, 50 μM”.

With SLQSQLGPCLHDQRH [PF-448] the MIC (A. niger) was “A. niger, 25 μM”.

With “TAFRLANRSATQALGKGGGKNLRIIRKGIHIIKKY-NH2 (C-terminus assumed) [F2/6/10-A2/6/10_C16G2]” the “% viability remaining” value (S. mutans [1]) was 78%.

For “TFFRLFNRSFTQALAKGGGKNLRIIRKGIHIIKKY-NH2 (C-terminus assumed) [G15-A15_C16G2]”, the “% viability remaining” value (S. mutans [1]) was 47%.

“TFFRLFNRSFTQALDKGGGKNLRIIRKGIHIIKKY-NH2 (C-terminus assumed) [G15-D15_C16G2]” was tested, and the “% viability remaining” value (S. mutans [1]) was 47%.

“TFFRLFNRSFTQALFKGGGKNLRIIRKGIHIIKKY-NH2 (C-terminus assumed) [G15-F15_C16G2]” was tested, and the “% viability remaining” value (S. mutans [1]) was 29%.

With “TFFRLFNRSFTQALGKGGGKNLRIIRKGIHIIKKY-NH2 [C16G2, reference compound]” the “% viability remaining” value (S. mutans [1]) was “antimicrobial peptide and GGG linker showed 5-18% remaining activity”.

“TFFRLFNRSLTQALGKGGGKNLRIIRKGIHIIKKY-NH2 (C-terminus assumed) [F10-L10_C16G2]” was tested, and the “% viability remaining” value (S. mutans [1]) was 30%.

For “TFFRLFNRSQTQALGKGGGKNLRIIRKGIHIIKKY-NH2 (C-terminus assumed) [F10 to Q10_C16G2]”, the “% viability remaining” value (S. mutans [1]) was 73%.

For “TFFRLLNRSFTQALGKGGGKNLRIIRKGIHIIKKY-NH2 (C-terminus assumed) [F6-L6_C16G2]”, the “% viability remaining” value (S. mutans [1]) was 43%.

In the case of “TFFRLQNRSFTQALGKGGGKNLRIIRKGIHIIKKY-NH2 (C-terminus assumed) [F6 to Q6_C16G2]”, the “% viability remaining” value (S. mutans [1]) is reported as 79%.

For “TKKIELKRFVDAFVKKSYENYILERELKKLIKAINEELPTK [PF-600]”, the MIC (E. coli) was “E. coli, 50 μM”.

With “TLFRLFNRSFTQALGKGGGKNLRIIRKGIHIIKKY-NH2 (C-terminus assumed) [F2-L2_C16G2]” the “% viability remaining” value (S. mutans [1]) was 63%.

For “TLFRLLNRSLTQALGKGGGKNLRIIRKGIHIIKKY-NH2 (C-terminus assumed) [F2F6F10-L2L6L10_C16G2]”, the “% viability remaining” value (S. mutans [1]) was 26%.

With “TQFRLFNRSFTQALGKGGGKNLRIIRKGIHIIKKY-NH2 (C-terminus assumed) [F2 to Q2_C16G2]” the “% viability remaining” value (S. mutans [1]) was 47%.

For “TWFRLFNRSFTQALGKGGGKNLRIIRKGIHIIKKY-NH2 (C-terminus assumed) [F2-W2_C16G2]”, the “% viability remaining” value (S. mutans [1]) was 45%.

With VLPFPAIPLSRRRACVAAPRPRSRQRAS [PF-168] the MIC (MRSA) was “MRSA, 50 μM”.

VYRKRKSILKIYAKLKGWH [K-2] was tested, and the MIC (S. mutans [2]) was 12.5 µM.

WSRVPGHSDTGWKVWHRW-NH2 [PF-547] was tested, and the MIC (B. subtilis) was “B. subtilis, 25 μM”, the MIC (T. rubrum) was “T. rubrum, 25 μM” and the MIC (S. mutans [2]) was 12.5 µM.

YIQFHLNQQPRPKVKKIKIFL-NH2 [PF-531] was tested, and the MIC (A. niger) was “A. niger, 25 μM”, the MIC (B. subtilis) was “B. subtilis, 25 μM” and the MIC (T. rubrum) was “T. rubrum, 50 μM”. It also gave an MIC (C. jeikeium) of 6.25 µM, an MIC (P. aeruginosa) of 50 µM and an MIC (S. epidermidis) of 50 µM. The MIC (A. baumannii) was 25 µM, the MIC (S. mutans [2]) was 12.5 µM and the MIC (C. difficile) was 12.5 µM.
